Assays:
HepG2 cell line = experiment: MTT cytotoxicity assay, HepG2; type: cell-based, human; settings: for IC50: mean ± SD of three experiments
Method: The cytotoxic activities against breast MCF-7 and liver HepG2 cancer cell lines for all the synthesized compounds 3a,b–17a,b were evaluated by MTT-based cytotoxicity assay. Sunitinib was selected as a reference standard in this study, and the results are presented as IC50 in Table 1.
The anticancer activities of the target compounds 3a,b–17a,b were quantitatively assessed using the MTT protocol against the MCF-7 and HepG2 cell lines, as described in the Supplementary Materials. […]
4.2. Biological investigation
4.2.1. In vitro cytotoxic activity assay
Citation: Abdelgawad, M.A.; Cell Line cells were obtained from the American Type Culture Collection. The cells Hayallah A.M.; Bukhari S.N.A.; were cultured using DMEM (Invitrogen/Life Technologies) supplemented with 10% FBS Musa A.; Elmowafy M.; (Hyclone,), 10 ug/ml of insulin (Sigma), and 1% penicillin‐streptomycin. All of the other Abdel‐Rahman, H.M.; chemicals and reagents were from Sigma or Invitrogen. Plate cells (cells density 1.2 – 1.8 Abd El‐Gaber, M.K. Design, × 10,000 cells/well) in a volume of 100μl complete growth medium + 100 μl of the tested Synthesis, Molecular Modeling, and compound per well in a 96‐well plate for 24 hours before the MTT assay. The tested com‐ Anticancer Evaluation of New pounds were dissolved in DMSO just before the test.
VEGFR‐2 Inhibitors Based on the Indolin‐2‐One Scaffold. 4.2.1.1. Cell culture protocol
Pharmaceuticals 2022, 15, x. The culture medium was removed to a centrifuge tube. The cell layer was briefly https://doi.org/10.3390/xxxxx rinsed with 5 mL of 0.25% (w/v) Trypsin and 3 mL of 0.53 mM EDTA solution to remove Academic Editor(s): Mary J. Meegan all traces of serum which contains Trypsin inhibitor. Next, 2.0 to 3.0 ml of Trypsin EDTA Received: 18 October 2022 solution was added to the flask and cells were observed under an inverted microscope Accepted: 9 November 2022 until the cell layer was dispersed (usually within 5 to 15 minutes). Then, 6.0 to 8.0 mL of Published: 14 November 2022 complete growth medium was added and cells aspirated by gently pipetting. The cell suspension was transferred to the centrifuge tube with the medium and cells from step 1, Publisher’s Note: MDPI stays neu‐and centrifuged at approximately 125 xg for 5 to 10 minutes. The supernatant was dis‐ tral with regard to jurisdictional carded and the cell pellet was suspended in fresh growth medium. Appropriate aliquots claims in published maps and institu‐ of the cell suspension were added to new culture vessels and incubated at 37°C for 24 hrs. tional affiliations. After treatment of cells with the serial concentrations of the compound to be tested, incu‐ bation was carried out for 48 h at 37 °C. The plates were examined under an inverted mi‐ croscope and proceeded for the MTT assay […]
Submitted for possible open access 4.2.1.2. […]
HepG‐2) were used in this test. At first, the cell lines were cultured in RPMI‐1640 medium Pharmaceuticals 2022, 15, x. https://doi.org/10.3390/xxxxx. www.mdpi.com/journal/pharmaceuticals […]
Pharmaceuticals 2022, 15, x FOR PEER REVIEW 2 of 22 with 10% fetal bovine serum. Antibiotics (100 units/ml penicillin and100 μg/ml strepto‐ mycin) were added at 37 °C in a 5% CO2 incubator. The cell lines were seeded in a 96‐well plate at a density of 1.0 x 10^4 cells / well at 37 °C for 48 h under 5% CO2. After incubation, the cells were treated with different concentrations of the synthesized compounds and incubated for 24 h. After 24 h of drug treatment, 20 μl of MTT solution (5mg/ml) was added and incubated for 4 h. 100 μl of dimethyl sulfoxide (DMSO) was added into each well to dissolve the formed purple formazan. The colored solution was measured and recorded at an absorbance of 570 nm using a plate reader (EXL 800, USA). The relative cell viability was calculated in percentage as (A570 of treated samples/A570 of untreated sam‐ ple) X 100. The half maximal inhibitory concentration (IC50) values were presented using […]

HepG2 cells = experiment: Apoptosis analysis (Annexin V-FITC/PI, flow cytometry); type: cell-based, human; settings: HepG2, 1.13 µM, 24 h
Method: The HepG2 cells were treated with 17a (1.13 µM for 24 h), and the apoptotic effect was determined using Annexin V-FITC/PI assay. […] In addition, 17a enhanced the necrosis percentage 4-fold more than the control.
The apoptotic ability of compound 17a to the HepG2 cells was assessed using Annexin V-FITC/PI dual staining by flow cytometric analysis, as shown in the Supplementary Materials. […]
4.2.3. Cell cycle analysis […]
4.2.4. Apoptosis analysis
Flow cytometry cell apoptosis analysis was used to investigate the apoptotic effect of the synthesized compounds. HepG2 cells were treated with compound 17a (1.13 μM) for 24 h, collected by trypsin, centrifuged, washed two successive times with PBS, suspended in 500 μL binding buffer, and double stained with 5 μL Annexin V‐FITC and 5 μL PI in the dark at room temperature for 15 min. The stained cells were measured using a BD FACSCalibur™ Flow Cytometer and analyzed using Flowing software. […]

In the case of `O=C1Nc2ccccc2C1=Nc1ccc(C(=O)NNC(=S)Nc2ccccc2)cc1` [Compound 17a, 2-(4-((2-Oxoindolin-3-ylidene)amino)benzoyl)-N-phenylhydrazinecarbothioamide], the IC50 (HepG2 cell line; Homo sapiens, HepG2, MTT assay) is reported as 1130 ± 60 nM, the IC50 (HepG2 cell line; MTT assay) is reported as 1130 ± 60 nM and the “fold more potent than sunitinib, HepG2” value (HepG2 cell line; ratio of IC50 to sunitinib) is reported as “two-fold”. For the same molecule, the “Apoptosis Early” value (HepG2 cells) was 33.86%, the “Apoptosis Late” value (HepG2 cells) was 7.99% and the “Apoptosis Total” value (HepG2 cells) was 46.38%. The Necrosis (HepG2 cells) was 4.53% and the “increase of necrosis percentage versus control” value (HepG2 cells) was 4 fold.

Reference: article PMC9698773, “Design, Synthesis, Molecular Modeling, and Anticancer Evaluation of New VEGFR-2 Inhibitors Based on the Indolin-2-One Scaffold” (Pharmaceuticals, 2022)
